Experimental data as given in patent US20260207621A1 (Vividion Therapeutics, Inc., priority 2022, published 2026).

How the values were obtained:
KEAP1 C151 = target: T1, KEAP1 C151 (Homo sapiens, UniProt Q14145); experiment: Nrf2 TMT measurement: in vitro TE50 for KEAP1 C151 (IA-DTB competition, targeted TMT mass spectrometry) in MDA-MB-468 cell lysate; type: binding; conditions: in vitro target engagement of KEAP1 C151, targeted TMT, read-out: KEAP1_C151 TE50
T1 construct: treating 500 μg of cell lysate generated from MDA-MB-468 breast cancer cells with DMSO or compound; endogenous in cells; host or cells: MDA-MB-468 breast cancer cell lysate
Protocol: In vitro TE50 values for KEAP_C151 were obtained by treating 500 μg of cell lysate generated from MDA-MB-468 breast cancer cells with DMSO or compound for 1 hour at room temperature followed by the addition of 200 μM IA-DTB (in DMSO) for one hour at room temperature. Samples were then precipitated by the addition of 8× ice cold acetonitrile and incubated at −80° C. for two hours. Protein was then pelleted by centrifugation (4,200 RPM, 45 min, 4° C.). The pelleted material was resuspended in 9M Urea, 50 mM ammonium bicarbonate and proteins were reduced and alkylated by the addition of DTT and iodoacetamide (10 and 30 mM, respectively). Following reduction and alkylation, samples were exchanged into 2M urea (Zeba spin desalting plates, Thermo Fisher) and digested with Trypsin. IA-DTB labeled peptides were isolated with streptavidin agarose resin. Enriched peptides were eluted by the addition of 50% acetonitrile (ACN) 0.1% Formic Acid (FA) and dried in a SpeedVac vacuum concentrator.
Dried peptides were resuspended in 0.2 M EPPS pH 8.5 and treated with 6.5 μL of 11-plex tandem mass tag (TMT) (8.3 μg/μL in dry ACN) for 2 hours at room temperature. Reactions were quenched by the addition of 6.5 μL of 5% Hydroxylamine. Samples were then combined and desalted on a Biotage Evolute express ABN plate (600-0010-PX01).
Targeted TMT. Targeted TMT measurements were collected using an Orbitrap LumosTribrid Mass Spectrometer (Thermo Scientific) coupled to an UltiMate 3000 Series Rapid Separation LC system and autosampler (Thermo Scientific Dionex). Peptides were eluted onto a custom C18 capillary analytical column (75-μm inner diameter fused silica, packed with Acclaim PepMap C18 resin (Thermo Scientific)) using an Acclaim PepMap 100 (Thermo 164535) loading column, and separated at a flow rate of 1.0 μl min−1. Data were acquired using a specific MS3-based TMT method targeting the peptide containing KEAP1 C151 (C(+324.2)[…], +3 charge state) where MS2 peptide fragmentation is triggered upon detection of the peptide precursor ion. Subsequent MS3 analysis was then performed using pre-selected peptide fragment ions that were isolated for fragmentation using synchronous precursor selection. RAW files were converted to MZXML format and searched with the SEQUEST algorithm using the MassPike software package. TMT quantitation was performed with a filter requiring at least ten summed signal-to-noise for control channels. Quantified signals were used for dose response curve-fitting and IC50 calculation using R's drc package.

Nrf2 = Nrf2 antagonism assay: ARE luciferase reporter in KYSE-70 cells; type: cell-based; conditions: positive Imax corresponds to Nrf2 antagonism; for Emax: Homo sapiens, KYSE-70, KYSE-70 cells, read-out: KYSE70 Cellular ARE Luciferase Imax (%)
Excerpt: NRF2 binds to a promoter region, antioxidant response element (ARE), to initiate expression of multiple genes. ARE luciferase reporter assays are used to test whether a ligand can activate or repress the expression of target genes using luciferase as a reporter gene.
KYSE-70 is an esophageal squamous cell carcinoma cell line with a Nrf2 mutation at amino acid position W24C. This mutation lowers the affinity between the E3 ligase that includes KEAP1 and Nrf2, resulting in a state in which the synthesis rate of new Nrf2 is faster than the E3's degradation rate of Nrf2, resulting in a “Nrf2 high” state. In KYSE-70 cells, genes are inserted directly after the ARE that trigger the expression of luciferase. Without a NRF2 antagonist in this modified KYSE70 cell line which has an inherently “NRF2 high state”, luciferase is expressed, and a signal is observed.
Nrf2 antagonists bind at C151 of KEAP1 and stabilize the E3 which results in an increased degradation rate of Nrf2. Increased degradation of Nrf2 results in less expression of luciferase, and therefore a less intense signal.
An IC50 is generated from the dose-response curve and an Imax. A positive Imax corresponds to Nrf2 antagonism. Imax >90% correlates with in vivo tumor grown inhibition. Compounds with Imax >50% were included in this description.

T1 sequence (Q14145 whole entry): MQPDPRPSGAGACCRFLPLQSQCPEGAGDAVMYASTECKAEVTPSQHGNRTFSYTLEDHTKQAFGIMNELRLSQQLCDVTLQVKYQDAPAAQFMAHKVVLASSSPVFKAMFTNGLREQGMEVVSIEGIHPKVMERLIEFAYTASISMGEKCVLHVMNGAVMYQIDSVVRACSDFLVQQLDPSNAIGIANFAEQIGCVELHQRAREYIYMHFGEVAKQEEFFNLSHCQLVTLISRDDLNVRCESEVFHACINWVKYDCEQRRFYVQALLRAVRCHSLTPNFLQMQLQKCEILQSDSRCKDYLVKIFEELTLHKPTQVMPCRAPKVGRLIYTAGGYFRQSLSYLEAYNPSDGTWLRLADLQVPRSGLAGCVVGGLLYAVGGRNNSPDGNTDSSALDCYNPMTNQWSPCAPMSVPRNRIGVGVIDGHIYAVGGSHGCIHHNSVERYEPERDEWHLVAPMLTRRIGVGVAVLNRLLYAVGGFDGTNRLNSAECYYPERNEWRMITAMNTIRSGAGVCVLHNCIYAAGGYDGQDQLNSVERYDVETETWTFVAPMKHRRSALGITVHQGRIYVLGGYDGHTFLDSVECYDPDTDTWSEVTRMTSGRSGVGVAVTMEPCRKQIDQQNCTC

| IC50 (KEAP1 C151) [nM] | SMILES | Emax (Nrf2) [%] | KYSE70 Cellular ARE Luciferase Imax (%) (Nrf2; KYSE-70 cells) |
| --- | --- | --- | --- |
| 120 | C=CC(=O)N1CCOCC1c1cc(Cl)nc(-c2cc[nH]c(=O)c2)c1 (single isomer, unassigned) [Compound 33, 4-(4-acryloylmorpholin-3-yl)-6-chloro-[2,4′-bipyridin]-2′(1′H)-one] | 82 |  |
| 18 | C=CC(=O)N1CCOCC1c1cc(Cl)cc(-c2ccc3nccnc3c2)c1 (single isomer, unassigned) [Compound 34, 1-(3-(3-chloro-5-(quinoxalin-6-yl)phenyl)morpholino)prop-2-en-1-one] | 83 |  |
| 17.8 | C=CC(=O)N1CCOCC1c1cc(Cl)cc(-c2ccnc(C)n2)c1 (single isomer, unassigned) [Compound 35, 1-(3-(3-chloro-5-(2-methylpyrimidin-4-yl)phenyl)morpholino)prop-2-en-1-one] | 89 |  |
| 110 | C=CC(=O)N1CCOCC1c1cc(Cl)cc(-c2cccn(C)c2=O)c1 (single isomer, unassigned) [Compound 36, 3-(3-(4-acryloylmorpholin-3-yl)-5-chlorophenyl)-1-methylpyridin-2(1H)-one] | 69 |  |
| 22 | C=CC(=O)N1CCOCC1c1cc(Cl)cc(-c2cnc3cccnc3c2)c1 (single isomer, unassigned) [Compound 37, 1-(3-(3-chloro-5-(1,5-naphthyridin-3-yl)phenyl)morpholino)prop-2-en-1-one] | 85 |  |
| 27 | C=CC(=O)N1CCOCC1c1cc(Cl)cc(-c2cc(C)ncn2)c1 (single isomer, unassigned) [Compound 38, 1-(3-(3-chloro-5-(6-methylpyrimidin-4-yl)phenyl)morpholino)prop-2-en-1-one] | 89 |  |
| 49 | C=CC(=O)N1CCS(=O)(=O)CC1c1cc(Cl)cc(-c2cc[nH]c(=O)c2)c1 (single isomer, unassigned) [Compound 39, 4-(3-(4-acryloyl-1,1-dioxidothiomorpholin-3-yl)-5-chlorophenyl)pyridin-2(1H)-one] | 66 |  |
| 40 | C=CC(=O)N1CCOCC1c1cc(Cl)cc(-c2ccnc(N)n2)c1 (single isomer, unassigned) [Compound 40, 1-(3-(3-(2-aminopyrimidin-4-y1)-5-chlorophenyl)morpholino)prop-2-en-1-one] | 93 |  |
| 200 | C=CC(=O)N1CCOCC1c1cc(Cl)cc(-c2nc[nH]n2)c1 (single isomer, unassigned) [Compound 41, 1-(3-(3-chloro-5-(1H-1,2,4-triazol-3-yl)phenyl)morpholino)prop-2-en-1-one] | 68 |  |
| 37 | C=CC(=O)N1CCOCC1c1cc(Cl)cc(-c2ccncn2)c1 (single isomer, unassigned) [Compound 42, 1-(3-(3-chloro-5-(pyrimidin-4-yl)phenyl)morpholino)prop-2-en-1-one] | 79 |  |
| 25 | C=CC(=O)N1CCOCC1c1cc(Cl)cc(-c2ccn3ccnc3c2)c1 (single isomer, unassigned) [Compound 43, 1-(3-(3-chloro-5-(imidazo[1,2-a]pyridin-7-yl)phenyl)morpholino)prop-2-en-1-one] | 87 |  |
| 15.7 | C=CC(=O)N1CCOC[C@H]1c1cc(Cl)cc(-c2ccc(F)c(C(N)=O)c2)c1 (single isomer, unassigned) [Compound 44] | 93 |  |
| 89 | C=CC(=O)N1CC(C)(C)OC[C@H]1c1cc(Cl)cc(-c2ncc(F)cn2)c1 (single isomer, unassigned) [Compound 45] | 83 |  |
| 140 | C=CC(=O)N1CC(C)(C)OC[C@H]1c1cc(Cl)cc(-c2cc(C)ncn2)c1 (single isomer, unassigned) [Compound 46] | 84 |  |
| 20 | C=CC(=O)N1CC(C)(C)OC[C@H]1c1cc(Cl)cc(-c2ccc3nccnc3c2)c1 (single isomer, unassigned) [Compound 47] | 74 |  |
| 66 | C=CC(=O)N1CC(C)(C)OC[C@H]1c1cc(Cl)cc(-c2ccnc(C)n2)c1 (single isomer, unassigned) [Compound 48] | 85 |  |
| 42 | C=CC(=O)N1CCOCC1c1cc(Cl)cc(-c2ccnc(OC)n2)c1 (single isomer, unassigned) [Compound 49, 1-(3-(3-chloro-5-(2-methoxypyrimidin-4-yl)phenyl)morpholino)prop-2-en-1-one] | 91 |  |
| 573 | C=CC(=O)N1CCS(=O)(=O)CC1c1cc(Cl)cc(-c2ccnc(C)n2)c1 (single isomer, unassigned) [Compound 50, 1-(3-(3-chloro-5-(2-methylpyrimidin-4-yl)phenyl)-1,1-dioxidothiomorpholino)prop-2-en-1-one] | 86 |  |
| 237 | C=CC(=O)N1CCS(=O)(=O)CC1c1cc(Cl)cc(-c2ccnc(C)n2)c1 (single isomer, unassigned) [Compound 51, 1-(3-(3-chloro-5-(2-methylpyrimidin-4-yl)phenyl)-1,1-dioxidothiomorpholino)prop-2-en-1-one] |  | 89 |
| 174 | C=CC(=O)N1CCS(=O)(=O)CC1c1cc(Cl)cc(-c2cc(C)ncn2)c1 (single isomer, unassigned) [Compound 52, 1-(3-(3-chloro-5-(6-methylpyrimidin-4-yl)phenyl)-1,1-dioxidothiomorpholino)prop-2-en-1-one] | 80 |  |
| 66 | C=CC(=O)N1CCOCC1c1cc(Cl)cc(-c2cnn(C)c(=O)c2)c1 (single isomer, unassigned) [Compound 53, 5-(3-(4-acryloylmorpholin-3-y1)-5-chlorophenyl)-2-methylpyridazin-3(2H)-one] | 55 |  |
| 49 | C=CC(=O)N1CCOCC1c1cc(Cl)cc(-c2cnccn2)c1 (single isomer, unassigned) [Compound 54, 1-(3-(3-chloro-5-(pyrazin-2-yl)phenyl)morpholino)prop-2-en-1-one] | 70 |  |
| 30.5 | C=CC(=O)N1CCOC[C@H]1c1cc(Cl)cc(-c2ncnc3[nH]cnc23)c1 (single isomer, unassigned) [Compound 58] | 95 |  |
| 58 | C=CC(=O)N1CCOCC1c1cc(Cl)cc(-c2cc(C(N)=O)ccc2F)c1 (single isomer, unassigned) [Compound 60, 3′-(4-acryloylmorpholin-3-yl)-5′-chloro-6-fluoro-[1,1′-biphenyl]-3-carboxamide] | 70 |  |
| 51.3 | C=CC(=O)N1CC(C)(C)OC[C@H]1c1cc(Cl)cc(-c2ccc(F)c(C(N)=O)c2)c1 (single isomer, unassigned) [Compound 61] | 89 |  |
| 220 | C=CC(=O)N1CCOC[C@H]1c1cc(Cl)cc(-c2ncn(CC(N)=O)n2)c1 (single isomer, unassigned) [Compound 62] | 55 |  |
| 3.3 | C=CC(=O)N1CCOCC1c1cc(Cl)cc(-c2ccn3ccnc3n2)c1 (single isomer, unassigned) [Compound 63, 1-(3-(3-chloro-5-(imidazo[1,2-a]pyrimidin-7-yl)phenyl)morpholino)prop-2-en-1-one] | 63 |  |
